A short description of the data set: Wash durability of permethrin-treated polyester fabric: accelerated laundering (AATCC Test Method 61-1996), solvent extraction, gas chromatography. It counts as physicochemical. The note with it: without the binder system, just after the first wash. On the procedure: A polyester warp fleece weighing approximately 7.6 oz. per linear yard was used in this trial. Based on the weight of the fabric, calculating the percent wet pick-up the of fabric using production sqeeze pressures in the pad application, and the amount of permethrin target (1.25 g/m^2), the quantity of permethrin to be added to the pad bath was calculated using the above equation to be 1.68%. […] The fabric was padded and dried at a normal drying temperature for polyester (330 to 350° F.).
After the application of permethrin to the fabric, samples of the treated fabric were extracted with toluene according to the procedure outlined below in order to determine the amount of permethrin loaded onto the fabric. A swatch of fabric measuring approximately two feet by two feet is cut from the treated roll of fabric. From that swatch, 3 smaller pieces measuring 10 cm by 10 cm, were cut and used for extraction of permethrin. Each 10 by 10 swatch was placed in a 250 ml flat-bottomed flask, and from 50-75 ml of an extraction solvent (e.g., 1,1,1-trichloroethane) was added thereto. The flask was then equipped with a reflux condenser and placed on a hot plate and allowed to reflux for 0.5-0.75 hr. Once the samples have finished refluxing and have cooled, 0.05mg/ml of dioctylphthalate (“DOP”) is added to the liquid fraction as an internal standard for gas chromatography (“gc”). […]

SMILES strings stand for the structures.

The results in this text go back to patent US7625411B2, “Insecticidally treated fabric having improved wash durability and insecticidal efficacy and method for its production” (Piedmont Chemical Industries I, LLC, priority 2004, dated 2009).

Consider `CC1(C)C(C=C(Cl)Cl)C1C(=O)OCc1cccc(Oc2ccccc2)c1` (centres unmarked) [permethrin], for which the “permethrin remaining in the fabric” value was 0.20-0.30 g/m^2 and the “permethrin washed out of the fabric, of the initial amount loaded” value is 60-80%.
